# Measured values as given in US9364462B2, “Alpha-1-adrenergic receptor agonist therapy” (The Regents of the University of California, priority 2012, dated 2016).
# Assay: Traumatic brain injury (TBI) by cortical impact, MRI
# Type: in vivo, mouse
# Conditions: 4 weeks treatment, vs vehicle
# Excerpt: FIG. 16. The alpha-1A agonist A61603 reduces the amount of brain damage after TBI, quantified by MRI. Mice had TBI by cortical impact, followed by 4 weeks treatment with A61603 or vehicle. MRI was done to identify viable brain (dark) and fluid-filled areas of lost brain tissue (bright) (left). The volume of dead brain was 50% less with A61603 (red, right).
# To test this, we used a mouse model of traumatic brain injury (TBI), produced by a piston impact on the cerebral cortex, done through a hole in the skull. TBI is a clinical problem of great and growing importance.
# We tested the model in the alpha-1A knockout (KO) mouse. TBI in the alpha-1A KO caused the worst damage, compared with normal mice and mice with the alpha-1B KO (FIG. 15). We tested A61603 in normal wild type mice, using the same low BP-neutral dose employed in the cardiac studies, 10 ng/kg/d. The protocol was a prevention trial, and the end-point was magnetic resonance imaging (MRI), which can quantify the amount of dead and viable brain tissue in the living subject (e.g. mouse, human) non-invasively. A61603 reduced the amount of dead brain tissue after TBI (FIG. 16).
smiles,measurement,value
"CS(=O)(=O)Nc1c(O)ccc2c1CCCC2C1=NCCN1 (stereo not shown) [A61603, N-[1-(4,5-dihydro-1H-imidazol-2-yl)-6-hydroxy-tetralin-5-yl]methanesulfonamide]","volume of dead brain, less with A61603",50%
